Source: patent US12077503B2, “Substituted cyclic amides and their use as herbicides” (FMC CORPORATION, priority 2015, dated 2024)

Columns and labels:
Assay type in all cases: in vivo
[1] = test system: giant foxtail (Setaria faberi); test: Test G Pre-Emergence Protocol; conditions: Setaria faberi, pre-emergence, 312 h, evaluated after 13 days; for pest or weed control at 15.625 g/ha: 15.625 g ai/ha; for pest or weed control at 15.625 g/ha / pest or weed control at 250 g/ha: read-out: Foxtail, Giant damage rating (100=total damage to plant; 0=no damage to plant); for pest or weed control at 62.5 g/ha: 62.5 g ai/ha, 100=total damage to plant, 0=no damage to plant, read-out: Foxtail, Giant damage rating; for pest or weed control at 250 g/ha: 250 g ai/ha
Procedure, shortened: (§1)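 Spraying took place one day after sowing, at 15.625, 62.5 or 250 g/ha, using an acetone/water (50:50) spray solution containing 0.5% Tween 20. Plants were kept under glasshouse conditions (24/16 °C, 14 h light, 65% humidity, watered twice daily), and injury was rated 0–100 at day 13.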

[2] = test system: corn (Zea mays); test: Test G Pre-Emergence Protocol; conditions: Zea mays, pre-emergence, 312 h, evaluated after 13 days; for plant injury at 15.625 g/ha: 15.625 g ai/ha; for plant injury at 15.625 g/ha / plant injury at 250 g/ha: read-out: Corn damage rating (100=total damage to plant; 0=no damage to plant); for plant injury at 62.5 g/ha: 62.5 g ai/ha, 100=total damage to plant, 0=no damage to plant, read-out: Corn damage rating; for plant injury at 250 g/ha: 250 g ai/ha
Procedure, shortened: as §1

[3] = test system: redroot pigweed (Amaranthus retroflexus); test: Test G Pre-Emergence Protocol; conditions: Amaranthus retroflexus, pre-emergence, 312 h, evaluated after 13 days; for pest or weed control at 15.625 g/ha: 15.625 g ai/ha; for pest or weed control at 15.625 g/ha / pest or weed control at 250 g/ha: read-out: Pigweed, Redroot damage rating (100=total damage to plant; 0=no damage to plant); for pest or weed control at 62.5 g/ha: 62.5 g ai/ha, 100=total damage to plant, 0=no damage to plant, read-out: Pigweed, Redroot damage rating; for pest or weed control at 250 g/ha: 250 g ai/ha
Procedure, shortened: as §1

[4] = test system: velvetleaf (Abutilon theophrasti); test: Test G Pre-Emergence Protocol; conditions: Abutilon theophrasti, pre-emergence, 312 h, evaluated after 13 days; for pest or weed control at 15.625 g/ha: 15.625 g ai/ha; for pest or weed control at 15.625 g/ha / pest or weed control at 250 g/ha: read-out: Velvetleaf damage rating (100=total damage to plant; 0=no damage to plant); for pest or weed control at 62.5 g/ha: 62.5 g ai/ha, 100=total damage to plant, 0=no damage to plant, read-out: Velvetleaf damage rating; for pest or weed control at 250 g/ha: 250 g ai/ha
Procedure, shortened: as §1

[5] = test system: barnyardgrass (Echinochloa crus-galli); test: Test G Pre-Emergence Protocol; conditions: Echinochloa crus-galli, pre-emergence, 312 h, evaluated after 13 days; for pest or weed control at 15.625 g/ha: 15.625 g ai/ha; for pest or weed control at 15.625 g/ha / pest or weed control at 250 g/ha: read-out: Barnyardgrass damage rating (100=total damage to plant; 0=no damage to plant); for pest or weed control at 62.5 g/ha: 62.5 g ai/ha, 100=total damage to plant, 0=no damage to plant, read-out: Barnyardgrass damage rating; for pest or weed control at 250 g/ha: 250 g ai/ha
Procedure, shortened: as §1

[6] = test system: ivy-leaved morning glory (Ipomoea hederacea); test: Test G Pre-Emergence Protocol; conditions: Ipomoea, pre-emergence, 312 h, evaluated after 13 days; for pest or weed control at 15.625 g/ha: 15.625 g ai/ha; for pest or weed control at 15.625 g/ha / pest or weed control at 250 g/ha: read-out: Morningglory, Ivy-leaved damage rating (100=total damage to plant; 0=no damage to plant); for pest or weed control at 62.5 g/ha: 62.5 g ai/ha, 100=total damage to plant, 0=no damage to plant, read-out: Morningglory, Ivy-leaved damage rating; for pest or weed control at 250 g/ha: 250 g ai/ha
Procedure, shortened: as §1

[7] = test system: giant foxtail (Setaria faberi); test: Test G Post-Emergence Protocol; conditions: Setaria faberi, post-emergence, 312 h, read-out: Foxtail, Giant damage rating; for pest or weed control at 15.625 g/ha: 15.625 g ai/ha, evaluated after 13 days (100=total damage to plant; 0=no damage to plant); for pest or weed control at 62.5 g/ha: 62.5 g ai/ha; for pest or weed control at 62.5 g/ha / pest or weed control at 250 g/ha: evaluated after 13 days, 100=total damage to plant, 0=no damage to plant; for pest or weed control at 250 g/ha: 250 g ai/ha
Procedure, shortened: (§2)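 Scores run 0 (no damage) to 100 (total damage) and were taken 13 days after spraying. Plants had been raised in pots for 8 days under glasshouse control (24/16 °C, 14 h photoperiod, 65% humidity) and then treated at 15.625, 62.5 or 250 g/ha.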

[8] = test system: corn (Zea mays); test: Test G Post-Emergence Protocol; conditions: Zea mays, post-emergence, 312 h, read-out: Corn damage rating; for plant injury at 15.625 g/ha: 15.625 g ai/ha, evaluated after 13 days (100=total damage to plant; 0=no damage to plant); for plant injury at 62.5 g/ha: 62.5 g ai/ha; for plant injury at 62.5 g/ha / plant injury at 250 g/ha: evaluated after 13 days, 100=total damage to plant, 0=no damage to plant; for plant injury at 250 g/ha: 250 g ai/ha
Procedure, shortened: as §2

[9] = test system: redroot pigweed (Amaranthus retroflexus); test: Test G Post-Emergence Protocol; conditions: Amaranthus retroflexus, post-emergence, 312 h, read-out: Pigweed, Redroot damage rating; for pest or weed control at 15.625 g/ha: 15.625 g ai/ha, evaluated after 13 days (100=total damage to plant; 0=no damage to plant); for pest or weed control at 62.5 g/ha: 62.5 g ai/ha; for pest or weed control at 62.5 g/ha / pest or weed control at 250 g/ha: evaluated after 13 days, 100=total damage to plant, 0=no damage to plant; for pest or weed control at 250 g/ha: 250 g ai/ha
Procedure, shortened: as §2

[10] = test system: velvetleaf (Abutilon theophrasti); test: Test G Post-Emergence Protocol; conditions: Abutilon theophrasti, post-emergence, 312 h, read-out: Velvetleaf damage rating; for pest or weed control at 15.625 g/ha: 15.625 g ai/ha, evaluated after 13 days (100=total damage to plant; 0=no damage to plant); for pest or weed control at 62.5 g/ha: 62.5 g ai/ha; for pest or weed control at 62.5 g/ha / pest or weed control at 250 g/ha: evaluated after 13 days, 100=total damage to plant, 0=no damage to plant; for pest or weed control at 250 g/ha: 250 g ai/ha
Procedure, shortened: as §2

[11] = test system: barnyardgrass (Echinochloa crus-galli); test: Test G Post-Emergence Protocol; conditions: Echinochloa crus-galli, post-emergence, 312 h, read-out: Barnyardgrass damage rating; for pest or weed control at 15.625 g/ha: 15.625 g ai/ha, evaluated after 13 days (100=total damage to plant; 0=no damage to plant); for pest or weed control at 62.5 g/ha: 62.5 g ai/ha; for pest or weed control at 62.5 g/ha / pest or weed control at 250 g/ha: evaluated after 13 days, 100=total damage to plant, 0=no damage to plant; for pest or weed control at 250 g/ha: 250 g ai/ha
Procedure, shortened: as §2

[12] = test system: ivy-leaved morning glory (Ipomoea hederacea); test: Test G Post-Emergence Protocol; conditions: Ipomoea, post-emergence, 312 h, read-out: Morningglory, Ivy-leaved damage rating; for pest or weed control at 15.625 g/ha: 15.625 g ai/ha, evaluated after 13 days (100=total damage to plant; 0=no damage to plant); for pest or weed control at 62.5 g/ha: 62.5 g ai/ha; for pest or weed control at 62.5 g/ha / pest or weed control at 250 g/ha: evaluated after 13 days, 100=total damage to plant, 0=no damage to plant; for pest or weed control at 250 g/ha: 250 g ai/ha
Procedure, shortened: as §2

SMILES	pest or weed control at 15.625 g/ha [1]	pest or weed control at 62.5 g/ha [1]	pest or weed control at 250 g/ha [1]	plant injury at 15.625 g/ha [2]	plant injury at 62.5 g/ha [2]	plant injury at 250 g/ha [2]	pest or weed control at 15.625 g/ha [3]	pest or weed control at 62.5 g/ha [3]	pest or weed control at 250 g/ha [3]	pest or weed control at 15.625 g/ha [4]	pest or weed control at 62.5 g/ha [4]	pest or weed control at 250 g/ha [4]	pest or weed control at 15.625 g/ha [5]	pest or weed control at 62.5 g/ha [5]	pest or weed control at 250 g/ha [5]	pest or weed control at 15.625 g/ha [6]	pest or weed control at 62.5 g/ha [6]	pest or weed control at 250 g/ha [6]	pest or weed control at 15.625 g/ha [7]	pest or weed control at 62.5 g/ha [7]	also measured
Cc1cc([C@H]2CN(C)C(=O)[C@@H]2C(=O)Nc2ccccc2S(C)(=O)=O)cc(C(F)(F)F)c1 (racemic) [Compound 1795]	60%	80%	90%	0%	40%	80%	0%	20%	30%	0%	0%	10%	30%	70%	80%	0%	10%	60%	60%	80%	pest or weed control at 250 g/ha [7]: 80%; plant injury at 15.625 g/ha [8]: 0%; plant injury at 62.5 g/ha [8]: 40%; plant injury at 250 g/ha [8]: 70%; pest or weed control at 15.625 g/ha [9]: 0%; pest or weed control at 62.5 g/ha [9]: 20%; pest or weed control at 250 g/ha [9]: 30%; pest or weed control at 15.625 g/ha [10]: 0%; pest or weed control at 62.5 g/ha [10]: 0%; pest or weed control at 250 g/ha [10]: 20%; pest or weed control at 15.625 g/ha [11]: 20%; pest or weed control at 62.5 g/ha [11]: 70%; pest or weed control at 250 g/ha [11]: 70%; pest or weed control at 15.625 g/ha [12]: 10%; pest or weed control at 62.5 g/ha [12]: 20%; pest or weed control at 250 g/ha [12]: 70%
CN1C[C@H](c2ccc(F)c(C#N)c2)[C@@H](C(=O)Nc2ccccc2S(C)(=O)=O)C1=O (racemic) [Compound 1798]	0%	10%	30%	0%	0%	0%	0%	0%	20%	0%	0%	10%	0%	0%	10%	0%	0%	0%	0%	20%	pest or weed control at 250 g/ha [7]: 10%; plant injury at 15.625 g/ha [8]: 0%; plant injury at 62.5 g/ha [8]: 0%; plant injury at 250 g/ha [8]: 0%; pest or weed control at 15.625 g/ha [9]: 0%; pest or weed control at 62.5 g/ha [9]: 0%; pest or weed control at 250 g/ha [9]: 20%; pest or weed control at 15.625 g/ha [10]: 0%; pest or weed control at 62.5 g/ha [10]: 0%; pest or weed control at 250 g/ha [10]: 0%; pest or weed control at 15.625 g/ha [11]: 0%; pest or weed control at 62.5 g/ha [11]: 0%; pest or weed control at 250 g/ha [11]: 0%; pest or weed control at 15.625 g/ha [12]: 0%; pest or weed control at 62.5 g/ha [12]: 0%; pest or weed control at 250 g/ha [12]: 0%
